Values quoted from earlier work in US20210319872A1, “DRUG AND DEVICE COMBINATION PRODUCTS WITH IMPROVED SAFETY AND EFFICACY PROFILES” (priority 2016, published 2021).

Conditions: in vivo

Nc1nnc(-c2cccc(Cl)c2Cl)c(N)n1 [Lamotrigine (Lamictal)]
Abdominal pain: Gastrointestinal: Abdominal pain (immediate-release, 5% to 10%),
Anemia: Hematologic: Anemia (immediate release, less than 0.1%),
Angioedema: Other: Angioedema (less than 0.1%), Neuroleptic malignant
Ataxia: release, 6%), Ataxia (immediate-release, 2% to 11%), Coordination
Coordination problem: problem (immediate-release, 6% to 7%; extended-release, 3%),
Depression: 3%), Depression (immediate-release, 4%; extended-release, 3%)
Diarrhea: Diarrhea (immediate-release, 6% to 11%; extended-release, 5%),
Dizziness: Dizziness (immediate-release, 7% to 54%; extended release, 14%),
Dysmenorrhea: Reproductive: Dysmenorrhea (immediate-release, 5% to 7%)
Headache: Headache (immediate-release, 29%), Insomnia (immediate-release,
Indigestion: Indigestion (immediate-release, 2% to 7%), Nausea (immediate-
Insomnia: 5% to 10%), Somnolence (immediate-release, 9% to 17%;
Nausea: release, 7% to 25%; extended-release, 7%), Vomiting (immediate-
Pain: Other: Pain (immediate-release, 5%)
Rash: Dermatologic: Rash (7% to 14%)
Rash, Serious: Serious (0.08% to 0.8%), Stevens-Johnson syndrome (0.08% to
Rhinitis: Respiratory: Rhinitis (immediate-release, 7% to 14%)
Vomiting: release, 5% to 20%; extended-release, 6%))

Nc1ccncc1 [Ampyra]
Abdominal pain: Gastrointestinal: Abdominal pain (7%), Nausea (7% to 13%),
Abnormal gait: Musculoskeletal: Abnormal gait (5%), Backache (5%)
Anxiety: Psychiatric: Anxiety (5%)
Asthenia: Neurologic: Asthenia (7%), Dizziness (7%), Headache (7%),
Backache: Musculoskeletal: Abnormal gait (5%), Backache (5%)
Dizziness: Neurologic: Asthenia (7%), Dizziness (7%), Headache (7%),
Headache: Neurologic: Asthenia (7%), Dizziness (7%), Headache (7%),
Insomnia: Insomnia (9%)
Nausea: Gastrointestinal: Abdominal pain (7%), Nausea (7% to 13%),
Serious side effect, Immunologic: Immunologic: Anaphylaxis, Hypersensitivity reaction
Serious side effect, Neurologic: Neurologic: Seizure
Urinary tract infectious disease: Renal: Urinary tract infectious disease (12%)
Vomiting: Vomiting (13%)

Contrave
Amnesia: Neurologic: Amnesia (Less than 2%), Seizure (0.1%)
Anxiety: Psychiatric: Anxiety (4.2%)
Cholecystitis: Gastrointestinal: Cholecystitis (Less than 2%), Hematochezia (Less
Constipation: Gastrointestinal: Constipation (19.2%), Diarrhea (7.1%), Nausea
Depression: Psychiatric: Depression (6.3% to 7.1%), Mania, Psychiatric
Diarrhea: Gastrointestinal: Constipation (19.2%), Diarrhea (7.1%), Nausea
Dizziness: Neurologic: Dizziness (9.9%), Headache (17.6%), Insomnia (9.2%)
Erythema multiforme: Dermatologic: Erythema multiforme (Rare), Stevens-Johnson
Headache: Neurologic: Dizziness (9.9%), Headache (17.6%), Insomnia (9.2%)
Hypertension: Cardiovascular: Hypertension (3.2%), Increased heart rate,
Infectious disorder of kidney: Renal: Infectious disorder of kidney (Less than 2%), Serum
Insomnia: Neurologic: Dizziness (9.9%), Headache (17.6%), Insomnia (9.2%)
Intervertebral disc prolapse: Musculoskeletal: Intervertebral disc prolapse (Less than 2%)
Myocardial infarction: Myocardial infarction (Less than 2%)
Nausea: (32.5%), Vomiting (10.7%), Xerostomia (8.1%)
Pneumonia: Respiratory: Pneumonia (Less than 2%)
Seizure: Neurologic: Amnesia (Less than 2%), Seizure (0.1%)
Serious side effect, Cardiovascular: Cardiovascular: Hypertension (3.2%), Increased heart rate,
Serious side effect, Endocrine metabolic: Endocrine metabolic: Hypoglycemia
Serious side effect, Hepatic: Hepatic: Hepatotoxicity
Serious side effect, Immunologic: Immunologic: Anaphylaxis, Delayed hypersensitivity disorder
Serious side effect, Ophthalmic: Ophthalmic: Angle-closure glaucoma
Serious side effect, Psychiatric: Psychiatric: Depression (6.3% to 7.1%), Mania, Psychiatric
Serum creatinine raised: creatinine raised (Less than 2%)
Stevens-Johnson syndrome: syndrome (Rare)
Suicidal thoughts: symptom, Suicidal thoughts (0.03%)
Vomiting: (32.5%), Vomiting (10.7%), Xerostomia (8.1%)
Xerostomia: (32.5%), Vomiting (10.7%), Xerostomia (8.1%)

CC(C)NCC(O)COc1ccc(COCCOC(C)C)cc1 (centres unmarked) [Bisoprolol (Zebeta)]
Diarrhea: Gastrointestinal: Diarrhea (2.6% to 3.5%)
Fatigue: Other: Fatigue (6.6% to 8.2%)
Headache: Neurologic: Headache (8.8% to 10.9%)
Rhinitis: Respiratory: Rhinitis (2.9% to 4%), Upper respiratory infection
Upper respiratory infection: (4.8% to 5%.)

NCC1(CC(=O)O)CCCCC1 [Gabapentin (Neurontin)]
Ataxia: Neurologic: Ataxia (Adult, 3%; adult and adolescent, 13%),
Disorder of form of thought: Psychiatric: Disorder of form of thought (Pediatric, 1.7%),
Disturbance in thinking: Disturbance in thinking (2% to 3%), Hostile behavior (Pediatric,
Fatigue: Other: Fatigue (3% to 11%), Fever (Pediatric, 10%)
Fever: Other: Fatigue (3% to 11%), Fever (Pediatric, 10%)
Hostile behavior: 5.2%), Hyperactive behavior (Pediatric, 4.7%), Mood swings
Hyperactive behavior: 5.2%), Hyperactive behavior (Pediatric, 4.7%), Mood swings
Mood swings: (Pediatric, 6%), Suicidal thoughts
Nausea: Gastrointestinal: Nausea (greater than 1%), Vomiting (3.3%)
Nystagmus: Nystagmus (Adult and adolescent, 8%)
Peripheral edema: Cardiovascular: Peripheral edema (1.7% to 8.3%)
Serious side effect, Dermatologic: Dermatologic: Stevens-Johnson syndrome
Serious side effect, Immunologic: Immunologic: Drug hypersensitivity syndrome
Serious side effect, Psychiatric: (Pediatric, 6%), Suicidal thoughts
Viral disease: Immunologic: Viral disease (10.9%)
Vomiting: Gastrointestinal: Nausea (greater than 1%), Vomiting (3.3%)
